What was measured:
[1] = molecular target: T1, AR-V567 (Homo sapiens, UniProt P10275); assay: PB-luciferase assay in Cos-1 cells transfected with AR-V567; assay type: cell-based; conditions: 24 h, serum-free
T1 construct: expressed in transfected cells; host or cells: Cos-1
T1 sequence (P10275 with tags, fused parts or gaps limits assumed): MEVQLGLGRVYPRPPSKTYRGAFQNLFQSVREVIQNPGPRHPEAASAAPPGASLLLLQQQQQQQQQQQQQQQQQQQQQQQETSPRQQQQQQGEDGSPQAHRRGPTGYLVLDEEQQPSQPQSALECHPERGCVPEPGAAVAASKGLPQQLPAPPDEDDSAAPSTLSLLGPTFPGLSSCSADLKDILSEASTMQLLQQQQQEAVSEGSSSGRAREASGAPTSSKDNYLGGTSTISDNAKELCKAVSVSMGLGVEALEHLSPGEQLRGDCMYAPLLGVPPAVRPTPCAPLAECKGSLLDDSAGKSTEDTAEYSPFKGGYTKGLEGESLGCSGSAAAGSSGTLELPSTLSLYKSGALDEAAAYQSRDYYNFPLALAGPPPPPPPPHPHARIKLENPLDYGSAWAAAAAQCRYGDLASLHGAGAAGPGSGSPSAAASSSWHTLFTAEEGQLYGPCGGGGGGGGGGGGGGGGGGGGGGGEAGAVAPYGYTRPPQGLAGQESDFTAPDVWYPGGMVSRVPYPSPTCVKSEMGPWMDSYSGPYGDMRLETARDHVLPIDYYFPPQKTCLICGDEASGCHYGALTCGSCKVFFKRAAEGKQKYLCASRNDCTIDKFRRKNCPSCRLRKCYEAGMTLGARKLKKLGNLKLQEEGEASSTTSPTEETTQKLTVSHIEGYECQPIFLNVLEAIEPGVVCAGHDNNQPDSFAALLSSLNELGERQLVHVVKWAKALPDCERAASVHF
Text: Ectopic protein levels of AR-V7 and AR-V567 in Cos-1 cells are shown relative to endogenous levels of FL-AR in LNCaP cells.

[2] = system: mTOR and AR pathways in LNCaP95 cells; assay: Western blot analysis of mTOR and AR pathways in LNCaP95 cells; assay type: cell-based, human; conditions: LNCaP95 cells
Procedure: Cells were harvested and whole-cell lysate (10 to 15 ug) was subjected to SDS-PAGE. Antibodies used were: AR (1:1000; Santa Cruz), AR-V7 (1:400; Precision), p110α (1:500; BD Bioscience), p110β (1:1000; abcam), […] (1:1000; abcam), p110δ (1:1000; abcam), UBE2C (Boston Biochem; 1:1000), PTEN (1:1000), pS6 (1:2000), pAktThr308 (1:1000), pAktSer473 (1:2000), p4EBP1 (1:1000), total-Akt (1:1000), total-S6 (1:1000), total-4EBP1 (1:1000), pERK/MAPK (1:1000), total-ERK/MAPK (1:1000) from Cell Signaling technology (Danvers, Mass.). β-actin (1:10,000, Abcam) was used as a loading control.
Protein levels of PSA were undetectable in LNCaP95 cells.

[3] = molecular target: T2, AR NTD (Homo sapiens, UniProt P10275); assay: AR NTD transactivation assay in LNCaP95 cells; assay type: cell-based; conditions: 24 h
T2 sequence (P10275 1-558): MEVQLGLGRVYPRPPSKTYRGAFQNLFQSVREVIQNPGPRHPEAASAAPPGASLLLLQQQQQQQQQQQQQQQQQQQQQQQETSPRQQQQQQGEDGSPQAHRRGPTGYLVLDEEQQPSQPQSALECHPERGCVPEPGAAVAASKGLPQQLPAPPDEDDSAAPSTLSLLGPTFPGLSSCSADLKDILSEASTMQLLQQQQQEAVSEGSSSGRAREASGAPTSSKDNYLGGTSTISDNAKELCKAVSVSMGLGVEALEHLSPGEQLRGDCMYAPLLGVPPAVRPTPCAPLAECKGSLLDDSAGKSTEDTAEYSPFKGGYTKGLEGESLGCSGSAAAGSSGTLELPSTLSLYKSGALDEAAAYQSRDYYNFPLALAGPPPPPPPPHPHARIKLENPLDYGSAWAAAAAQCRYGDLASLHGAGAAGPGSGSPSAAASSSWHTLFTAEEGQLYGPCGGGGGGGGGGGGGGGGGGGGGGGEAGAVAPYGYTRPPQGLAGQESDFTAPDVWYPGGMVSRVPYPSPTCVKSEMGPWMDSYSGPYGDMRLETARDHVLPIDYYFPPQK
Procedure: Transactivation assays of the AR NTD were performed in LNCaP and LNCaP95 cells cotransfected with p5xGal4UAS-TATA-luciferase and AR NTD-Gal4DBD (FIG. 2D). […] LNCaP95 cells were harvested 24 h after the treatment of indicated compounds.
The AR NTD is essential for full transcriptional activities (Quayle, S. N. et. al., PNAS 2007, 104, 1331-1336). In LNCaP cells, transactivation of the AR NTD can be induced with IL-6 or by stimulation of the PKA pathway with FSK. In LNCaP95 cells, there is high intrinsic activity of the AR NTD which cannot be further induced by stimulation of these pathways.

[4] = absence of androgen, BEZ-235 15 nM

SMILES: Cn1c(=O)n(-c2ccc(C(C)(C)C#N)cc2)c2c3cc(-c4cnc5ccccc5c4)ccc3ncc21 [BEZ-235, 2-methyl-2-[4-(3-methyl-2-oxo-8-quinolin-3-ylimidazo[4,5-c]quinolin-1-yl)phenyl]propanenitrile]
- transcriptional activity of AR-V567 [1]: no effect
- pAkt ([2]; 500 nM BEZ-235): inhibited
- levels of UBE2C ([2]; 48 h): decreased
- pAkt ([2]; BEZ-235 15 nM, everolimus): did not impact
- levels of AR-V7 [2, 4]: increased
- levels of FL-AR [2, 4]: increased
- protein levels of FL-AR ([2]; titration experiments): increased
- pS6 ribosomal protein ([2]; titration, BEZ-235 15 nM, everolimus 10 nM): inhibited
- intrinsic activity of AR NTD [3]: no effect

Reference: patent US20170056336A1, “CO-TARGETING ANDROGEN RECEPTOR SPLICE VARIANTS AND MTOR SIGNALING PATHWAY FOR THE TREATMENT OF CASTRATION-RESISTANT PROSTATE CANCER” (British Columbia Cancer Agency Branch, priority 2015, published 2017)
